Columns and labels:
[1] = tested on: isolated canine Purkinje fibres; assay: Intracellular electrophysiology, action potential duration (50% and 90% repolarization) in isolated canine Purkinje fibres; assay type: cell-based, canine (mongrel dogs)
Experimental: I. Intracellular electrophysiological studies on isolated canine Purkinje fibres: study of the characteristics and the duration of the action potential
Mongrel dogs of both sexes, weighing 8-22 kg, were anaesthetized with intravenously administered sodium pentobarbital, 30 mg/kg (Nembutal®).The superficial Purkinje fibres were excised from the heart and placed in plastic organ bath containing Tyrode's solution ([…] of Na^+, 4.0 mM of K^+, 133.3 mM of Cl^-, 2.0 mM of Ca^2+, 22.0 mM of HCO3 -, 0.9 mM of H2 PO4^+, 0.7 mM of Mg^2+, 5.0 mM of glucose) The perfusate (Tyrode's solution) was gassed with a mixture of 95% of O^2 and 5% of CO2. Temperature of the organ bath was 37.0°±0.5° C. pH=7.3±0.5. Purkinje fibres were incubated for 1-2 hours in order to avoid spontaneous changes in the duration of action potential, to be observed often for a short period after the preparation completed. Conventional glass microelectrode method was used to measure intracellular action potentials. The electrodes were filled with 3M KCl solution, resistance was 5-15 Mohm. Microelectrodes were connected to high input-resistance capacity-neutralizing amplifier through a Ag-AgCl connection. Another electrode was placed in the organ bath as a reference electrode. Maximum rate of depolarization (Vmax) was measured with an electronic differentiating unit. The intracellular pulses were visualized on a two-channel oscilloscope by a microcomputer in on-line mode. The following parameters were measured: resting potential, action potential amplitude, 50% and 90% repolarizations, maximum rate of depolarization. Preparations were stimulated through silver electrodes insulated with PTFE. Parameters of stimuli were rectangular pulses of 1 ms duration with an intensity of two times the threshold. The basal stimulation periods were changed between 200 and 1000 msec. [Varre et al., J. Cardiovasc. Pharmacol. 11, 251 (1988)].
The applied dose of the compounds according to the invention is 10 mg/L.
Concentration of Pinacidil: 1 mg/L
Concentration of Nicorandil: 5 mg/L
APD: action potential duration

[2] = tested on: vasopressin-induced ST elevation; assay: Inhibitory effect on the vasopressin-induced ST elevation in anaesthetized rats; assay type: in vivo, CFY male rats; details: vasopressin 3 IE/kg i.v.
Experimental: II. Inhibitory effect on the vasopressin-induced ST elevation in anaesthetized rats
The studies were performed in 200-250 g CFY male rats. Animals were anaesthetized with intraperitoneally administered urethane ([…]), then subjected to ECG, using limb leads. Coronary spasm, reflected by elevated ST deflection in the ECG recordings, was induced by treating the rats with 3 IE/kg of vasopressin intravenously. […] Methods. 5, 325-336 (1981)].
Dose of compounds of the invention: 1 mg/kg, i.v. except where appears

[3] = result in words, characteristic of drugs with merely K+-channel-activating activity; cited from earlier work
[4] = 5.0 mg/kg i.v. pretreatment (*)

Compound | ADD90 Change (%) ([1]; 10 mg/L) | ARD50 Change (%) ([1]; 10 mg/L) | ADD90 after treatment ([1]; 10 mg/L) [ms] | ARD50 after treatment ([1]; 10 mg/L) [ms] | Inhibition (%) of vasopressin-induced ST elevation ([2]; 1 mg/kg, i.v. pretreatment) [%] | other results
CN1NC(N=C(N)N2CCCCC2)=Nc2ccccc2C1=O [Example 4, 2-[Amino-(1-piperidinyl)-methyleneamino]-4-methyl-3,4-dihydro-4H-1,3,4-benzotriazepin-5-one] | -10 | -33 | 226 | 113 |  | Inhibition (%) of vasopressin-induced ST elevation [2, 4]: -36%
CC(NC(N)=NC1=Nc2ccccc2C(=O)N(C)N1)C(C)(C)C (stereo not drawn) [Example 17, 2-[amino-(3,3-dimethyl-2-butylamino)-methyleneamino]-4-methyl-3,4-dihydro-1,3,4-benzotriazepin-5(4H)-one] | -13 | -42 | 221 | 91 | -68 | 
CC(NC1=Nc2ccccc2C(=O)N(C)N1)C(C)(C)C (stereo not drawn) [Example 18, 2-(3,3-dimethyl-2-butylamino)-4-methyl-3,4-dihydro-1,3,4-benzotriazepin-5(4H)-one] | -15 | -29 | 213 | 111 |  | 
COc1cc(C(=O)OCCCN2C(N=C(N)N3CCCNCC3)=Nc3ccccc3C(=O)N2C)cc(OC)c1OC [Example 19, 2-[amino-(1-homopiperazinyl)-methyleneamino]-3-[3-(3,4,5-trimethoxybenzoyloxy)-1-propyl]-4-methyl-3,4-dihydro-1,3,4-benzotriazepin-5(4H)-one] | -9 | -25 | 237 | 121 | -59 | 
CN1C(=O)c2ccccc2N=C(NCc2cccnc2)N1CCCN1CCN(c2ccccc2)CC1 [Example 20, 2-(3-pyridylmethylamino)-3-[3-(4-phenyl-1-piperazinyl)-1-propyl]-4-methyl-3,4-dihydro-1,3,4-benzotriazepin-5 (4H)-one] | -5 | -42 | 227 | 79 |  | 
CN1C(=O)c2ccccc2N=C(N=C(N)N2CCCCC2)N1Cc1ccccn1 [Example 22, 2-[amino-(1-piperidinyl)-methyleneamino]-3-(2-pyridylmethyl)-4-methyl-3,4-dihydro-1,3,4-benzotriazepin-5(4H)-one] | -10 | -39 | 219 | 97 | -59 | 
O=C(NCCO[N+](=O)[O-])c1cccnc1 [Nicorandil, reference compound] |  |  |  |  | -12 | ADD90 Change (%) ([1]; Nicorandil 5 mg/L): -32%; ARD50 Change (%) ([1]; Nicorandil 5 mg/L): -41%; ADD90 after treatment ([1]; Nicorandil 5 mg/L): 179 ms; ARD50 after treatment ([1]; Nicorandil 5 mg/L): 107 ms; Inhibition (%) of vasopressin-induced ST elevation [2, 4]: -60%
CC(N/C(=N\C#N)Nc1ccncc1)C(C)(C)C (stereo not drawn) [Pinacidil, reference compound] |  |  |  |  |  | unpleasant side-effects [3]: tachycardia and the so-called "first dose effect"; ADD90 Change (%) ([1]; Pinacidil 1 mg/L): -45%; ARD50 Change (%) ([1]; Pinacidil 1 mg/L): -61%; ADD90 after treatment ([1]; Pinacidil 1 mg/L): 141 ms; ARD50 after treatment ([1]; Pinacidil 1 mg/L): 71 ms
